Experimental data: ChEMBL document CHEMBL5257079, “Discovery of FXR/PPARγ dual partial agonist” (Bioorg Med Chem, 2023); call rule not given here

What was measured:
Bile acid receptor [1] = biological target: T1, Bile acid receptor (Homo sapiens, UniProt Q96RI1); assay: Partial agonist activity at FXR-LBD-GST (unknown origin) by TR-FRET assay
T1 sequence (Q96RI1 whole entry): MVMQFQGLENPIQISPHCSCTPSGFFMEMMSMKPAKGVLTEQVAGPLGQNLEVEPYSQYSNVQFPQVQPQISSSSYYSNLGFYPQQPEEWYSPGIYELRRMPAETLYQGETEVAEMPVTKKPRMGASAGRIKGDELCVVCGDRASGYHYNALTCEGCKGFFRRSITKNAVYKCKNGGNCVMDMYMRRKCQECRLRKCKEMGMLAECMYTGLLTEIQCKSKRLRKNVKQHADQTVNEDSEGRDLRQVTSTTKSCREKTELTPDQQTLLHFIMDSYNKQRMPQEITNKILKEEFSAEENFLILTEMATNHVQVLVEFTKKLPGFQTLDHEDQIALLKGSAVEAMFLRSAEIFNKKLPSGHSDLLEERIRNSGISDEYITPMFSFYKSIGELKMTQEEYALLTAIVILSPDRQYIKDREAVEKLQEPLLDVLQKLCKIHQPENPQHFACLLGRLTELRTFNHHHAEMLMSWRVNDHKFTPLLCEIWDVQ

[2] = Metabolic stability in mouse liver microsomes assessed as half life; assay type: ADME, Microsome
[3] = Metabolic stability in mouse liver microsomes assessed as parent compound remaining after 30 mins; assay type: ADME, Microsome; conditions: read-out: Stability
Bile acid receptor [4] = biological target: T1, Bile acid receptor; assay: Partial agonist activity at human FXR expressed in Huh-7 cells in presence of CDCA by luciferase reporter gene assay; assay type: cell-based
[5] = biological target: T2, Bile acid receptor (Homo sapiens) (UniProt Q96RI1); assay: Partial agonist activity at human FXR expressed in Huh-7 cells in presence of CDCA by luciferase reporter gene assay relative to GW4064; assay type: cell-based
T2 sequence (whole entry): T1 sequence (Q96RI1 whole entry)

Bile acid receptor [6] = biological target: T1, Bile acid receptor; assay: Antagonist activity at FXR-LBD-GST (unknown origin) in presence of GW4064

| EC50 (Bile acid receptor [1]) | EC50 (Bile acid receptor [1]; read-out: EC50) | Structure (SMILES) | other results |
| --- | --- | --- | --- |
| Not Active | – | CC(C)(C)c1ccc(NC(=O)c2ccc3ncn(Cc4ccc(C(=O)O)cc4)c3c2)cc1 | – |
| Not Active | – | CC(C)(C)c1ccc(Cn2c(-c3ccc(C(=O)O)cc3)nc3ccccc32)cc1 | – |
| Not Active | – | CC(C)(C)c1ccc(C(=O)Nc2cccc3c2ncn3-c2ccc(C(=O)O)cc2)cc1 | – |
| – | 490 nM | CC(C)(C)c1ccc(-n2cnc3c(NC(=O)c4ccc(C(=O)O)cc4)cccc32)cc1 | half-life [2]: 24.6 min; remaining at 0.5 h [3]: 37.9% |
| – | 140 nM | CC(C)(C)c1ccc(Cn2cnc3c(-c4ccc(C(=O)O)cc4)cccc32)cc1 | – |
| Not Active | – | CC(C)(C)c1ccc(C(=O)Nc2cccc3c2ncn3Cc2ccc(C(=O)O)cc2)cc1 | – |
| – | 760 nM | CC(C)(C)c1ccc(-c2cccc3c2ncn3Cc2ccc(C(=O)O)cc2)cc1 | – |
| Not Active | – | CC(C)(C)c1ccc(-c2cccc3c2ncn3-c2ccc(C(=O)O)cc2)cc1 | – |
| – | 140 nM | CC(C)(C)c1ccc(Cn2cnc3c(NC(=O)c4ccc(C(=O)O)cc4)cccc32)cc1 | EC50 (Bile acid receptor [4]): 2200 nM; Activity [5]: 6% |
| Not Active | – | CC(C)(C)c1ccc(NC(=O)c2ccc3c(c2)ncn3Cc2ccc(C(=O)O)cc2)cc1 | – |
| – | 410 nM | CC(C)(C)c1ccc(Cn2cnc3c(NC(=O)Cc4ccc(C(=O)O)cc4)cccc32)cc1 | – |
| Not Active | – | CC(C)(C)c1ccc(Cn2cnc3ccc(C(=O)Nc4ccc(C(=O)O)cc4)cc32)cc1 | – |
| Not Active | – | CC(C)(C)c1ccc(Cn2cnc3cc(C(=O)Nc4ccc(C(=O)O)cc4)ccc32)cc1 | – |
| Not Active | – | CC(C)(C)c1ccc(-c2nc3ccccc3n2Cc2ccc(C(=O)O)cc2)cc1 | – |
| – | 510 nM | CC(C)(C)c1ccc(-n2cnc3c(-c4ccc(C(=O)O)cc4)cccc32)cc1 | IC50 (Bile acid receptor [6]): 9900 nM; half-life [2]: 25 min; remaining at 0.5 h [3]: 36.9% |
